The test system of assay [1] is HeLa. Put plainly: Antiproliferative activity against human HeLa cells by MTT assay. The class given is functional, cell-based. (In general: Formazan colour is commonly taken as a measure of viable cells.)
In assay [2] the test system is HCT-116. Put plainly: Cytotoxicity against human HCT116 cells assessed as reduction in cell viability after 96 hrs by MTT assay. The class given is functional, cell-based. The settings on record: HCT-116, 96 h.
Assay [3] has as its system MDA-MB-231. Put plainly: Cytotoxicity against human MDA-MB-231 cells assessed as reduction in cell viability after 96 hrs by MTT assay. In kind it is functional, cell-based. The settings on record: MDA-MB-231, 96 h.
Assay [4] relates to HT-29. Briefly: Cytotoxicity against human HT-29 cells assessed as reduction in cell viability after 96 hrs by MTT assay. The class given is functional, cell-based. The settings on record: HT-29, 96 h.
The test system of assay [5] is MCF7. Briefly: Cytotoxicity against human MCF7 cells assessed as reduction in cell viability by MTT assay. In kind it is functional, cell-based. Particulars: Homo sapiens, MCF7.
In assay [6] the test system is HepG2. Put plainly: Cytotoxicity against human HepG2 cells assessed as reduction in cell viability by MTT assay. In kind it is functional, cell-based. The settings on record: Homo sapiens, HepG2.
In assay [7] the test system is HepG2. Put plainly: Antiproliferative activity against human HepG2 cells after 72 hrs by ELISA. In kind it is functional, cell-based. The settings on record: HepG2, 72 h. For orientation: ELISA stands for enzyme-linked immunosorbent assay.
Assay [8] relates to Caco-2. Briefly: Antiproliferative activity against human Caco2 cells after 72 hrs by ELISA. Particulars: Caco-2, 72 h. In kind it is functional, cell-based.
The subject of assay [9] is MCF7. Briefly: Antiproliferative activity against human MCF7 cells after 72 hrs by ELISA. The class given is functional, cell-based. Particulars: MCF7, 72 h.
Assay [10] concerns DLD-1. Put plainly: Cytotoxicity against human DLD1 cells assessed as reduction in cell viability. In kind it is functional, cell-based.
Assay [11] has as its system HepG2. Put plainly: Cytotoxicity against human HepG2 cells assessed as reduction in cell viability. In kind it is functional, cell-based.
Assay [12] relates to HeLa. Briefly: Cytotoxicity against human HeLa cells assessed as reduction in cell viability after 68 hrs by MTT assay. The class given is functional, cell-based.
Assay [13] deals with K562. Briefly: Cytotoxicity against human K562 cells assessed as reduction in cell viability after 68 hrs by MTT assay. The class given is functional, cell-based. Particulars: K562, 68 h.
The subject of assay [14] is A549. Briefly: Cytotoxicity against human A549 cells assessed as reduction in cell viability after 68 hrs by MTT assay. In kind it is functional, cell-based. Particulars: A549, 68 h.
In assay [15] the target is RAC-alpha serine/threonine-protein kinase (Homo sapiens, UniProt P31749). Briefly: Inhibition of AKT phosphorylation in human K562 cells. In kind it is cell-based.
In assay [16] the test system is MCF7. Briefly: Cytotoxicity against human MCF7 cells assessed as reduction in cell viability after 68 hrs by MTT assay. The settings on record: MCF7, 68 h. The class given is functional, cell-based.
Assay [17] deals with A549. Put plainly: Cytotoxicity against human A549 cells assessed as reduction in cell viability after 24 hrs by MTT assay. In kind it is functional, cell-based. Particulars: A549, 24 h.
Assay [18] relates to BT-20. Briefly: Cytotoxicity against human BT20 cells assessed as reduction in cell viability after 24 hrs by MTT assay. The settings on record: BT-20, 24 h. The class given is functional, cell-based.
Assay [19] has as its system DU-145. Briefly: Cytotoxicity against human DU145 cells assessed as reduction in cell viability after 24 hrs by MTT assay. In kind it is functional, cell-based. Particulars: DU-145, 24 h.
Assay [20] relates to SK-MEL-28. Briefly: Cytotoxicity against human SK-MEL-28 cells assessed as reduction in cell viability after 24 hrs by MTT assay. The settings on record: SK-MEL-28, 24 h. In kind it is functional, cell-based.

Molecules are shown by their SMILES. ≈ marks a conversion by molar mass, not a printed value.

Chain of RAC-alpha serine/threonine-protein kinase (P31749 whole entry): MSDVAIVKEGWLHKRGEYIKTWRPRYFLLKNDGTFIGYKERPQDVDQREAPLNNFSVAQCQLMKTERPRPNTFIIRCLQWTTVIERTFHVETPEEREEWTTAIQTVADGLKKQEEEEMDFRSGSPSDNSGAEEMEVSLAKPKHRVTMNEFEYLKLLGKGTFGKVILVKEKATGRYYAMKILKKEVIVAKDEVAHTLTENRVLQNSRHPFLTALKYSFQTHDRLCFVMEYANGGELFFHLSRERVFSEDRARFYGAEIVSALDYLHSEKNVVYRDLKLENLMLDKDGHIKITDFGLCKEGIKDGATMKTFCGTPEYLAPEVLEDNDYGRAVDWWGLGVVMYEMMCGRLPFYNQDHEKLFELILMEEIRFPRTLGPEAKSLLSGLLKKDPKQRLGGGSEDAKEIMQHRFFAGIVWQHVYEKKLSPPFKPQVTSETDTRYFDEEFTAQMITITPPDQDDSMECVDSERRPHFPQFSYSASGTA

The IC50 is the concentration needed to halve the response being measured. In assay [1], `COC(=O)c1sc(N/N=C(\C)c2cc3cc(Cl)ccc3oc2=O)nc1C` had a concentration for half-maximal inhibition (IC50) of 0.0091 to 0.569 µM.

Regarding `Cc1ccc2oc(=O)cc(Cn3cc(CO[C@H]4O[C@@H]5O[C@@]6(C)CC[C@H]7[C@H](C)CC[C@@H]([C@H]4C)[C@@]57OO6)nn3)c2c1`, the IC50 in assay [2], in assay [3] and in [4] was 8.57 to 100 µM in each case.

Consider `Cc1cc(C)c2c(Cn3cc(CO[C@H]4O[C@@H]5O[C@@]6(C)CC[C@H]7[C@H](C)CC[C@@H]([C@H]4C)[C@@]57OO6)nn3)cc(=O)oc2c1`, for which the IC50 in assay [2], in assay [3] and in assay [4] was 8.57 to 100 µM throughout.

Consider `Cc1ccc2oc(=O)cc(CSc3nc(NN)c(C#N)c(-c4ccccc4)n3)c2c1`, for which the values for the half-maximal inhibitory concentration (IC50) in assay [5] and in assay [6] were 6.9 µM and 5.5 µM, respectively.

With `COC(=O)c1sc(N/N=C(\C)c2cc3ccccc3oc2=O)nc1C`, the half-inhibitory concentration (IC50) in assay [1] was 0.0091 to 0.569 µM.

Take `C/C(=N\Nc1nc(C)c(-c2ccccc2)s1)c1ccc(NS(=O)(=O)c2ccc3oc(=O)ccc3c2)cc1`: the 50% inhibitory concentration (IC50) in [7] was 3.48 µM; in [8], 5.03 to 175 µM; in assay [9] it was 5.03 to 175 µM.

As to `CCNc1ncc(C(=O)c2cc3ccccc3oc2=O)s1`, the IC50 in assay [10] and in assay [11] was 5.66 to 100 µg/mL (≈ 18.8 to 333 µM) in each case.

Consider `O=C(c1cnc(Nc2ccc(F)cc2)s1)c1cc2ccccc2oc1=O`, for which the IC50 in assay [10] and in assay [11] was 5.66 to 100 µg/mL (≈ 15.4 to 273 µM) in each case.

As to `Cc1ccc(NC(=O)Nc2ccc(Cc3c(C)c4cc(C(C)(C)C)c(O)cc4oc3=O)cn2)cc1`, the IC50 is 1.66 to 9.27 µM in assay [12]; 1.66 to 9.27 µM in assay [13]; 1.66 to 9.27 µM in [14]; less than 10 µM in assay [15]; 1.66 to 9.27 µM in assay [16].

Regarding `O=C(c1cnc(Nc2ccccc2)s1)c1cc2ccccc2oc1=O`, the 50% inhibitory concentration (IC50) in [10] and in assay [11] was 5.66 to 100 µg/mL (≈ 16.2 to 287 µM) in each case.

For the molecule `C/C(=N\Nc1ccc([N+](=O)[O-])cc1[N+](=O)[O-])c1ccc(NS(=O)(=O)c2ccc3oc(=O)ccc3c2)cc1`, the IC50 in [7], in assay [8] and in assay [9] was 5.03 to 175 µM each time.

As to `Cc1ccc2oc(=O)cc(CSc3nc(-c4ccccc4)c(C#N)c(N4CCOCC4)n3)c2c1`, the concentration for half-maximal inhibition (IC50) in assay [5] and in assay [6] was 5.5 to 91.1 µM each time.

A word on the EC50: it is the concentration giving half of the maximal effect. For `C/C(=N\Nc1ncc(C(=O)c2cc3ccccc3oc2=O)s1)c1ccccc1`, the EC50 in [10] and in assay [11] was 3.7 to 9.54 µg/mL (≈ 9.5 to 24.5 µM) throughout.

On to `Cc1c(Cc2ccc(NC(=O)Nc3cccc(Cl)c3)nc2)c(=O)oc2cc(O)c(C(C)(C)C)cc12`, for which the half-inhibitory concentration (IC50) in assay [12] is 1.66 to 9.27 µM; in assay [13], 1.66 to 9.27 µM; in assay [14], 1.66 to 9.27 µM; in assay [15], less than 10 µM; in assay [16], 1.66 to 9.27 µM.

With `C/C(=N\NC1=NC(=O)CS1)c1ccc(NS(=O)(=O)c2ccc3oc(=O)ccc3c2)cc1`, the 50% inhibitory concentration (IC50) in assay [7] is 5.03 µM; in [8], 5.03 to 175 µM; in assay [9], 5.03 to 175 µM.

Regarding `O=C(c1cnc(Nc2ccc(Br)cc2)s1)c1cc2ccccc2oc1=O`, the 50% inhibitory concentration (IC50) in assay [10] and in assay [11] was 5.66 to 100 µg/mL (≈ 13.2 to 234 µM) throughout.

`C=CCNc1ncc(C(=O)c2cc3ccccc3oc2=O)s1`: the half-inhibitory concentration (IC50) in [10] and in assay [11] was 5.66 to 100 µg/mL (≈ 18.1 to 320 µM) each time.

Take `Cc1ccc2oc(=O)cc(CSc3nc(-c4ccccc4)c(C#N)c(N4CCNCC4)n3)c2c1`: the half-inhibitory concentration (IC50) in assay [5] and in assay [6] was 5.5 to 91.1 µM throughout.

For `CCN(CC)c1ccc2cc(C(=O)NNC(=O)Cn3nc(Cc4ccc(Cl)c(Cl)c4)[nH]c3=O)c(=O)oc2c1`, the IC50 in [17], in assay [18], in assay [19] and in [20] was 3.1 to 37.9 µg/mL (≈ 5.54 to 67.7 µM) throughout.

Regarding `C/C(=N\Nc1ncc(C(=O)c2cc3ccccc3oc2=O)s1)c1ccc(C)cc1`, the EC50 in assay [10] and in assay [11] was 3.7 to 9.54 µg/mL (≈ 9.17 to 23.6 µM) throughout.

As to `COC(=O)c1sc(N/N=C(\C)c2cc3cc(Br)ccc3oc2=O)nc1C`, the IC50 in assay [1] lay in the range of 0.0091 to 0.569 µM.

Take `Cc1c(Cc2ccc(NC(=O)Nc3ccc(F)cc3)nc2)c(=O)oc2cc(O)c(C(C)(C)C)cc12`: the IC50 is 1.66 to 9.27 µM in assay [12]; 1.66 to 9.27 µM in assay [13]; 1.66 to 9.27 µM in assay [14]; less than 10 µM in assay [15]; 1.66 to 9.27 µM in assay [16].
